Results on three compounds are retold here after patent US20250163459A1, “IMPROVED CELL LINES AND METHODS FOR THE PRODUCTION OF ADENO-ASSOCIATED VECTORS” (CEVEC PHARMACEUTICALS GMBH, priority 2022, published 2025).

Assay type in all cases: cell-based, human
The test system of assay [1] is CAP cells. Description: Encapsidated host cell DNA in AAV particles, ALU qPCR, CAP-derived producer cells. Conditions: for encapsidated hcDNA: 30 μM and 60 μM, compared to vehicle treated controls (DMSO). As for the experimental part:
(§1) At different time points post transfection, cell suspension was harvested, and cells were lysed by addition of Triton-X 100 (Sigma). After centrifugation, supernatants were diluted and incubated with TurboDNase (ThermoFisher Scientific), in order to remove non-encapsidated DNA contaminants. After inactivation of TurboDNAse, proteinase K was added to digest the viral capsid and subsequently amplify viral genomic DNA or hcDNA via ddPCR or qPCR.
(§2) The following primer/dual-labelled probe combinations (ordered at MWG, Eurofins and IDT, respectively, Table 1) directed against • a) the SV40 PolyA (quantification of viral titer) or • b) Alu sequences (quantification of hcDNA) • were used:
(§3) As standard for the viral genome, linearized transgene plasmid with a defined copy number was used. As standard for the hcDNA assay previously isolated CAP and HEK293 DNA (purified with DNeasy® Blood & Tissue Kit) was used.
AAV samples were treated with Turbo DNAse (Thermo Fischer Scientific) to digest the non-encapsidated DNA before the capsids were digested using Proteinase K. Proteinase K was inactivated by a heating step at 95° C. for 15 min. The samples were measured either by qPCR or ddPCR as follows:
The qPCR reaction contained the following components: 2×Brilliant Multiplex qPCR Master Mix (Agilent), nuclease-free H2O (Thermo Fisher Scientific), primer/probe mix and sample/standard. qPCR was run on an LightCycler 480 according to the manufacturer's instructions.
(§4) • Z-VAD-fmk inhibits caspases 3 and 8 which are upstream of the apoptotic nucleases DFF40 and ENDOG, respectively. • Z-VAD-fmk treatment should therefore reduce chromosomal fragmentation and decrease amount of packageably sized AAV cargo. • Transiently transfected CAP cells and HEK293 cells or full producers were cultured to produce AAV in the presence of absence of Z-VAD-fmk. • Resulting AAV particles were harvested from cell suspension on days 1, 2, 3, and 4 post induction. • Encapsidated host cell DNA was measured using a dedicated qPCR assay amplifying ALU repeats. • DNA fragmentation was determined using the DNA fragmentation assay by Chemometec.

A further assay has as its system CAP cell line. The experiment in a line: Viable cell density and viability of induced AAV producer cells. Conditions: for viable cell density and viability: induced AAV producer cells, versus untreated cells, Camptothecin 10 μM. As for the experimental part:
During routine cultivation, cells were diluted with fresh medium to a viable cell density of 0.5-1×10^6 cells/ml every 72 to 96 h. Viable cell density and viability were determined by trypan blue exclusion using a Vi-Cell Blu cell counter (Beckman Coulter).
• Various stable and transient AAV producer cells were induced with doxycycline and treated with different concentrations of the antiapoptotic pan-caspase inhibitor Z-VAD-fmk. • Cell viability was evaluated using the NucleoCounter NC-3000.

For assay [2], the system named is CAP cells. Description: Sub-G1 DNA fragmentation assay (Chemometec, NucleoCounter NC-3000). Conditions: during vector production; Camptothecin 10 μM over night on parental CAP cells.
Text: A DNA fragmentation assay by Chemometec was applied using the NucleoCounter® NC-3000™ according to note No. 3003. Rev. 1.4.
In brief, cells were permeabilized with Ethanol, which allows low molecular weight DNA fragments (e.g., apoptotic DNA) to leak out, while large fragments and undamaged chromosomes are retained inside the nucleus. Total DNA content was stained by DAPI and detected using the NucleoCounter® NC-3000™. Here, cells typically fall into one of three clusters when plotted by signal intensity. The G1 peak represents the majority of cells with 2n DNA content. A second, smaller peak represents cells in G2 phase of the cell cycle, containing 4n. […]
as §4

The test system of assay [3] is HEK293 cells. The experiment in a line: Encapsidated host cell DNA in AAV particles, ALU qPCR, HEK293 cells. Conditions: up to 40 μg/ml, compared to untreated controls, transient transfection. The protocol:
as §1, §2, §3
AAV samples were treated with Turbo DNAse (Thermo Fischer Scientific) to digest the non-encapsidated DNA before the capsids were digested using Proteinase K. Proteinase K was inactivated by a heating step at 95° C. for 15 min. The samples were measured either by qPCR or ddPCR as follows: […]
(In general: Real-time PCR tracks product formation cycle by cycle.)

Assay [4] relates to HEK293 cells. The experiment in a line: Endpoint PCR for detection of encapsidated hcDNA. Conditions: transiently transfected HEK293 wt cells, cargo 1 or cargo 3. As for the experimental part:
Encapsidated hcDNA was prepared as described. PCR setup involved 3 μl sample as template for an endpoint PCR with 40 cylces using Q5 High-Fidelity DNA polymerase (NEB) according to the manufacturer's instructions. PCR samples were analyzed on a 2% agarose gel.

The next assay relates to stable producer cells. The experiment in a line: Capsid levels by ELISA. Conditions: in the presence of Z-VAD-fmk. The protocol: Inhibition of apoptotic DNA fragmentation reduces amount and packaging of hcDNA. • a) First page: sensitivity test for Sub-G1 DNA-fragmentation assay (Chemometec) using Camptothecin treatment (10 μM) on parental CAP cells over night. M1 population as % of global DNA stain. Second page: merged curves for apoptotic DNA fragmentation determined by same assay after 0 h (black curve), 18 h (dark grey), and 44 h (light grey), with Z-VAD-fmk (right) and in control samples (left, induction only) • b) First page: Relative share of encapsidated hcDNA [%] in transient and stable AAV8 production at 3 days post induction (transient transfection) and 5 days post induction (stable clone). […] Encapsidated hcDNA was measured in relation to the respective untreated controls, each set at 100%. Second page: fold difference of hcDNA concentration over time [hours] in an untreated AAV production using stable producer clone 1 (light grey line) normalized to 10 μg/ml of Z-VAD-fmk (dark grey line) determined by ALU qPCR. • c) First page: Relative Capsid levels determined by ELISA in stable producer clone 1 and transiently transfected HEK293 suspension cells at different Z-VAD-fmk concentrations and compared with Camptothecin. […] Second page: corresponding host cell DNA per capsid as determined by ALU qPCR normalized to untreated controls. […]
A general note: An ELISA detects its analyte on a solid surface through an enzyme-linked reagent.

Turning to `C[S+]([O-])c1ccc(-c2nc(-c3ccc(F)cc3)c(-c3ccncc3)[nH]2)cc1` (centres unmarked) [Adezmapimod, 4-(4-fluorophenyl)-2-(4-methylsulfinylphenyl)-5-(4-pyridyl)-1H-imidazole], the “encapsidated hcDNA” value in the assay on CAP cells [1] (stable inducible AAV producer cells, day 3 post induction) is “reduced hcDNA encapsidation”; in the assay on CAP cells [1] (stable inducible AAV producer cells, day 3 post induction, listed as SB 203580), “reduces the encapsidated hcDNA”. The “reduction of encapsidated hcDNA” value with CAP cells [1] (60 μM, stable inducible AAV producer cells, compared to vehicle treated controls, day 3 post induction) is “more than 75%”.
Consider `CC[C@@]1(O)C(=O)OCc2c1cc1n(c2=O)Cc2cc3ccccc3nc2-1` [Camptothecin], for which the “viable cell density and viability” value in the assay on CAP cell line was “reduced viability and VCD”. Besides, the “amount of low molecular weight DNA (short DNA fragments)” value in the assay on CAP cells [2] is recorded as “increase in short DNA fragments”.
In the case of “Z-Val-Ala-Asp fluoromethyl ketone [Z-VAD-fmk]”, the “packaging of host cell DNA” value is “dramatically decreased packaging of host cell DNA” with HEK293 cells [3]; “dramatically decreased packaging of host cell DNA” with CAP cells [1] (up to 40 μg/ml, compared to untreated controls, fully transient approach and full producers). The same compound registered an increase in viability with CAP cell line (80 h of treatment with 10 μg/ml, compared to untreated cells) of approximately 10 percentage points. Besides, in the assay with CAP cell line (co-culturing, 10 μM Camptothecin+20 μM Z-VAD-fmk), the “compensation of Camptothecin-reduced viability and VCD” value is recorded as “could be compensated”. Further, the “viable cell density and viability” value in the assay on CAP cell line is “increased viable cell density and viability”. The “amount of low molecular weight DNA (short DNA fragments)” value with CAP cells [2] is “reduced the amount of low molecular weight DNA”. Further, the “reduction in encapsidated hcDNA normalized to capsid levels” value in the assay on CAP cells [1] (stable producer cells, compared to controls) is approximately 10 fold. The “encapsidated hcDNA (genomic DNA sequence from HEK293 cells)” value with HEK293 cells [4] is “undetectable”. Also, in the assay on stable producer cells, the “capsid levels (ELISA)” value was “slightly increased”.
